The values that follow are results of earlier work, collected in patent publication US12357592B2, “Compositions and methods for monitoring the treatment of breast disorders” (priority 2018, dated 2025).

Structures are written as SMILES. Where only a bound is given, the exact number is not on record here.

The subject of the data set is breast cancer. The following applies: tamoxifen as prevention, given to healthy women; background statement.

On to `CC/C(=C(\c1ccccc1)c1ccc(OCCN(C)C)cc1)c1ccccc1` [Tamoxifen, (Z)-2-[4-(1,2-diphenyl-1-butenyl)phenoxy]-N,N-dimethylethanamine], for which the “reduce the risk of breast cancer” value is on record as at most 50%.
